# Values of other authors in paper PMC5278571, “Optimal doses of caspofungin during continuous venovenous hemodiafiltration in critically ill patients” (Critical Care, 2017).
# Key:
# Conditions in all cases: murine model of disseminated candidiasis; cited from earlier work
# [1] = tested on: C. parapsilosis
# Method: (§1) Taking into account a MIC of 0.1 mg/L [4], and using the target pharmacokinetics/pharmacodynamics (PK/PD) described for micafungin, we would have reac ...
# [2] = tested on: Candida albicans
# Method: as §1
# [3] = tested on: Candida glabrata
# Method: as §1
substance,measurement,setting,value
micafungin,AUC/MIC associated with 1 log kill/24 h,[1],1185
same,AUC/MIC associated with 1 log kill/24 h,[2],865
same,AUC/MIC associated with 1 log kill/24 h,[3],450
